Results on three molecules are retold here after patent US4710492A, “3'-azido-2',3'-dideoxy-5-halouridine and its use in treating patients infected with retroviruses” (Yale University, priority 1986, dated 1987).

Where two headings read alike, the source gives them in different places.

The subject of test [1] is HTLV-III/LAV/AAV. Description: Antiviral activity against HTLV-III/LAV/AAV. In kind it is cell-based. Conditions: Human immunodeficiency virus 1; read-out: ID50 HTLV-III/LAV/AAV.
The subject of test [2] is Moloney Murine Leukemia Virus. Kind of test: Antiviral screening against Moloney Murine Leukemia Virus (MuLV) by XC-Assay. Conditions: read-out: ID50 (Moloney Murine Leukemia Virus). In kind it is cell-based. The text has this:
Biological Activity Assay Procedure for Antiviral Screening Against Moloney Murine Leukemia Virus (MuLV) by XC-Assay
The XC assay system is an indirect method for quantitation of murine-leukemia virus (MuLV) originally described by V. Klement et al, Proc. Natl. Acad. Sci., 63, 753, (1969) and modified by W. Rowe et al, Virology, 42, 1136, (1970). This test is based on the development of syncytial changes in the XC cell line when it is co-cultivated with mouse fibroblast cells (SC-1 cells) productively infected with MuLV. The XC cell line was derived from a rat tumor induced by the prague strain of Rouse Sarcoma Virus (RSV) (J. Svoboda et al, Folia Biol., 9, 77, (1963)).
1E5 SC-1 cells were seeded, in Earls Minimum Essential Medium (EMEM)-10% Fetal Bovine Serum (FBS), onto 60 mm petri dishes. The following day, the cells were inoculated with 0.5 ml of a virus dilution containing 25 μg/ml of DEAE-dextran. The dishes were maintained for 1 hour at 37° C. in a humidified 5% CO2 incubator. The virus inoculum was then removed and replaced with 5 ml of medium containing appropriate concentration of the test compound (two dishes/concentration). Medium containing 5% FBS was added to the virus control dishes. The medium (with or without the test compound) was changed at 48 hours.
Five days after virus inoculation, the culture fluid was decanted and the cells were irradiated with a GE germicidal bulb for 30 seconds (1500-1800 ergs UV-light). Cultures were immediately overlaid with 2E5 XC cells in 5 ml of EMEM-10% FBS/dish. The medium was changed at 2 day intervals. Four days after XC cell addition, cultures were simultaneously fixed and stained with GEIMSA for 10 to 15 minutes.
Plaques were counted using an inverted microscopy as holes in the cell sheet containing syncytial cells, or as focal masses of multinucleated giant cells.
Calculation of % Inhibition/Concentration: [formula] ID50: Accumulative % Inhibition using Reed-Muench Method

The subject of test [3] is HTLV III/LAV. Conditions: in vitro; Mitsuya et al. 1985; cited from earlier work.
Setting [4] is: SC1, XC-assay, SC-1 mouse fibroblast cells co-cultivated with XC cells, Reed-Muench Method.

As for `[N-]=[N+]=N[C@H]1C[C@H](n2cc(Br)c(=O)[nH]c2=O)O[C@@H]1CO` [3'-N3 --BUdR, 3'-azido-2',3'-dideoxy-5-bromouridine], the figures for the IC50 in test [1] and in test [2] (setting [4]) were 2300 nM and 1500 nM, respectively.

For the molecule `[N-]=[N+]=N[C@H]1C[C@H](n2cc(I)c(=O)[nH]c2=O)O[C@@H]1CO` [3'-N3 --IUdR, 3'-azido-2',3'-dideoxy-5-iodouridine], the IC50 in test [2] (setting [4]) was found to be 3000 nM.

Take `Cc1cn([C@H]2C[C@H](N=[N+]=[N-])[C@@H](CO)O2)c(=O)[nH]c1=O` [3'-azido-3'-deoxythymidine]: the IC50 in test [1] stood at 230 nM. Besides, the IC50 in test [2] (SC1, Fibroblast) is 23 nM. For the same molecule, in test [3], the “HTLV III/LAV replication” value was “inhibit HTLV III/LAV replication” and the “cytopathic effects of HTLV III/LAV” value is “block the cytopathic effects”.
